Experimental data as given in ChEMBL document CHEMBL5331072, “Development of potent and selective FAAH inhibitors with improved drug-like properties as potential tools to treat neuroinflammatory conditions” (Eur J Med Chem, 2023).
Converted amounts (≈) assume the structure as drawn. The source made the active and inactive calls. No cut-off for these calls is given here.

What was measured:
[1] = target: T1, Monoglyceride lipase (Homo sapiens, UniProt Q99685); test: Inhibition of human recombinant MAGL using 7-hydroxycoumarinyl arachidonate as substrate preincubated for 30 mins followed by substrate addition and measured after 30 mins by multimode plate reader analysis
T1 sequence (Q99685 whole entry): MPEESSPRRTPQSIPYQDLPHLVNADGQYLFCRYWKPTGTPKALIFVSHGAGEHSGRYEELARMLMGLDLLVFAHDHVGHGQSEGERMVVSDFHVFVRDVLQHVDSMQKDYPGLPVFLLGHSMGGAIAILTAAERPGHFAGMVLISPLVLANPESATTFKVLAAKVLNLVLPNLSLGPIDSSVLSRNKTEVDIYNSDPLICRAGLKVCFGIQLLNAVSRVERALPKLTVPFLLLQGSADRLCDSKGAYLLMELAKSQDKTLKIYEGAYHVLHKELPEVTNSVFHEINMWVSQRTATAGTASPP

[2] = target: T2, Fatty-acid amide hydrolase 1 (Homo sapiens, UniProt O00519); test: Inhibition of human recombinant FAAH using AMC-AA as substrate preincubated for 30 mins followed by substrate addition and measured after 30 mins by multimode plate reader analysis
T2 sequence (O00519 whole entry): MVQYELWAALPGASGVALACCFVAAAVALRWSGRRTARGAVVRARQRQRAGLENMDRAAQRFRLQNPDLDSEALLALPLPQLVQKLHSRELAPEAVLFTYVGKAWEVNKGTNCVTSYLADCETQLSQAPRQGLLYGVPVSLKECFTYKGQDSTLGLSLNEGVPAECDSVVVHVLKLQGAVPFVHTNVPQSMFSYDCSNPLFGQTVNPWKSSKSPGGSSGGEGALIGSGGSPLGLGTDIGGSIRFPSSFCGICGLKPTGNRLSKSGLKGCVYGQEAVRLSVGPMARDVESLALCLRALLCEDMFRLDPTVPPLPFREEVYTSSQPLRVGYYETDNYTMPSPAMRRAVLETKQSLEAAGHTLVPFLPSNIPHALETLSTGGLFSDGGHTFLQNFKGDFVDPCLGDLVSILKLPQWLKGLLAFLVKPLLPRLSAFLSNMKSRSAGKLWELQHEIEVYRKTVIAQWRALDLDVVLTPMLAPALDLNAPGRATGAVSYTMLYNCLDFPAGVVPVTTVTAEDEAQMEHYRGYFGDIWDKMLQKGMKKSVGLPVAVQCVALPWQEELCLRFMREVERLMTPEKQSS

[3] = Chemical stability of the compound at pH 3 measured for 24 hrs by HPLC analysis; type: physicochemical; settings: buffer, read-out: Stability
[4] = Solubility of compound at pH 3 measured for 24 hrs; type: physicochemical; settings: buffer
[5] = Chemical stability of the compound at pH 7.4 measured for 24 hrs by HPLC analysis; type: physicochemical; settings: buffer, read-out: Stability
[6] = Solubility of compound at pH 7.4 measured for 24 hrs; type: physicochemical; settings: buffer
[7] = target: T3, Fatty-acid amide hydrolase 1 (Homo sapiens) (UniProt O00519); test: Reversible inhibition of human recombinant FAAH at 10 to 100 nM using AMC-AA as substrate preincubated for 30 mins followed by substrate addition and measured after 30 mins by rapid dilution method; settings: dose 10-100 nM, time 1.0 hrs
T3 sequence (whole entry): T2 sequence (O00519 whole entry)

[8] = Neurotoxicity against Wistar rat Hippocampus assessed as cell survival at 0.3 to 100 nM measured for 96 hrs by densitometric analysis; type: toxicity, tissue-based; settings: 0.1 µM, dose 0.3-100 nM
[9] = Dissociation constant, pKa of the compound; type: physicochemical
[10] = Cytotoxicity against mouse NIH3T3 cells assessed as inhibition of cell growth measured for 24 hrs by neutral red uptake assay; type: toxicity, cell-based
[11] = system: Hippocampus; test: Neuroprotective activity against Wistar rat Hippocampus assessed as reduction in LPS/IFN-gamma induced PI uptake in CA1 region at 3 to 100 nM measured for 96 hrs; type: functional, tissue-based; settings: dose 3-100 nM
[12] = system: Hippocampus; test: Neuroprotective activity against Wistar rat Hippocampus assessed as reduction in LPS/IFN-gamma induced PI uptake in CA1 region at 0.3 to 100 nM measured for 96 hrs; type: functional; settings: dose 0.3-100 nM
[13] = system: 1321N1; test: Cytotoxicity against human 1321N1 cells assessed as inhibition of cell growth at 100 nM measured for 24 hrs by MTT assay; type: functional; set-up: scale not given: the % may be the effect or the level left
[14] = system: 1321N1; test: Antiinflammatory activity against human 1321N1 cells assessed as reduction in TBHP-induced ROS production at 10 nM incubated for 24 hrs by CellROX green reagent based flow cytometry assay; type: functional, cell-based
[15] = system: Hippocampus; test: Neuroprotective activity against Wistar rat Hippocampus assessed as reduction in LPS/IFN-gamma induced PI uptake in CA1 region at 0.1 to 10 uM measured for 96 hrs; type: functional, tissue-based; settings: dose 0.1-10 µM
[16] = system: Hippocampus; test: Neuroprotective activity against Wistar rat Hippocampus assessed as reduction in LPS/IFN-gamma induced PI uptake in CA1 region measured for 96 hrs; type: functional, tissue-based
[17] = system: 1321N1; test: Antiinflammatory activity against human 1321N1 cells assessed as reduction in TBHP-induced ROS production at 1 uM incubated for 24 hrs by CellROX green reagent based flow cytometry assay; type: functional, cell-based
[18] = system: 1321N1; test: Cytotoxicity against human 1321N1 cells assessed as inhibition of cell growth at 10 nM measured for 24 hrs by MTT assay; type: functional; set-up: scale not given: the % may be the effect or the level left
[19] = system: 1321N1; test: Cytotoxicity against human 1321N1 cells assessed as inhibition of cell growth at 1 uM measured for 24 hrs by MTT assay; type: functional; set-up: scale not given: the % may be the effect or the level left
[20] = system: 1321N1; test: Cytotoxicity against human 1321N1 cells assessed as inhibition of cell growth at 10 uM measured for 24 hrs by MTT assay; type: functional; set-up: scale not given: the % may be the effect or the level left
[21] = system: 1321N1; test: Cytotoxicity against human 1321N1 cells assessed as inhibition of cell growth at 30 uM measured for 24 hrs by MTT assay; type: functional; set-up: scale not given: the % may be the effect or the level left
[22] = Solubility of compound at pH 3 measured for 12 hrs; type: physicochemical; settings: buffer
[23] = Solubility of compound at pH 7.4 measured for 12 hrs; type: physicochemical; settings: buffer

Cc1cc(C(N)=O)c(-c2cccc(OC(=O)N(C)C3CCN(CCc4ccccc4)CC3)c2)s1
IC50 [1]: > 10000 nM
IC50 [2]: 8450 nM

NC(=O)c1ccn(-c2cccc(OC(=O)NCCCCCCc3ccccc3)c2)c1
IC50 [2]: 3.72 nM
remaining at 24 h [3]: 32%
solubility at 24 h [4]: 3 µM (≈ 1.22 µg/mL)
remaining at 24 h [5]: 38%

Cc1cc(C(N)=O)c(-c2cccc(OC(=O)NCCCCCCN3CCN(C)CC3)c2)o1
IC50 [1]: > 10000 nM
IC50 [2]: 1040 nM

Cc1cc(C(=O)O)c(-c2cccc(OC(=O)NCCCCCCc3ccccc3)c2)o1
solubility at 24 h [6]: 172 µM (≈ 72.5 µg/mL)
IC50 [1]: 2440 nM
IC50 [2]: 10.5 nM
remaining at 24 h [3]: < 1%
remaining at 24 h [5]: 92.7%

Cc1cc(C(N)=O)c(-c2cccc(OC(=O)N3CCN(CCCc4ccccc4)CC3)c2)s1
IC50 [1]: > 10000 nM
IC50 [2]: 15.6 nM

CN(C(=O)Oc1cccc(-n2ccc(C(N)=O)c2)c1)C1CCN(CCc2ccccc2)CC1
IC50 [1]: > 10000 nM
IC50 [2]: > 10000 nM

NC(=O)c1cn(-c2cccc(OC(=O)N3CCN(CCCc4ccccc4)CC3)c2)nn1
solubility at 24 h [6]: 38 µM (≈ 16.5 µg/mL)
IC50 [1]: 2900 nM
IC50 [2]: 47.4 nM
remaining at 24 h [3]: > 99%
solubility at 24 h [4]: 298 µM (≈ 129 µg/mL)
remaining at 24 h [5]: > 99%

Cc1cc(C(N)=O)c(-c2cccc(OC(=O)N3CCC(NCCc4ccccc4)CC3)c2)o1
inhibition [7]: Active
solubility at 24 h [6]: 206 µM (≈ 92.2 µg/mL)
Activity [8]: Non-Toxic
pKa [9]: 7.6
IC50 [1]: > 10000 nM
IC50 [2]: 26.3 nM
remaining at 24 h [3]: > 99%
IC50 at 24 h [10]: 45000 nM
Activity [11]: Active
solubility at 24 h [4]: 277 µM (≈ 124 µg/mL)
Activity [12]: Active
remaining at 24 h [5]: > 99%

Cc1cc(C(N)=O)c(-c2cccc(OC(=O)NC3CCN(CCc4ccccc4)CC3)c2)o1
solubility at 24 h [6]: 67 µM (≈ 30 µg/mL)
IC50 [1]: > 10000 nM
IC50 [2]: 188 nM
remaining at 24 h [3]: 96%
solubility at 24 h [4]: 282 µM (≈ 126 µg/mL)
remaining at 24 h [5]: > 99%

Cc1cc(C(N)=O)c(-c2cccc(OC(=O)NC3CCN(CCc4ccccc4)CC3)c2)s1
IC50 [1]: > 10000 nM
IC50 [2]: 194 nM

O=C(NCCCCCCc1ccccc1)Oc1cccc(-c2nn[nH]n2)c1
Activity [13]: 98.5%
Activity [14]: Active
solubility at 24 h [6]: 108 µM (≈ 39.5 µg/mL)
Activity [8]: Non-Toxic
IC50 [1]: 8400 nM
IC50 [2]: 7.54 nM
remaining at 24 h [3]: < 1%
IC50 at 24 h [10]: 39000 nM
Activity [15]: Active
Activity [16]: Dose-Dependent Effect
Activity [17]: Active
remaining at 24 h [5]: > 99%
Activity [18]: 100.8%
Activity [19]: 98.8%
Activity [20]: 99.8%
Activity [21]: 97%

NC(=O)c1ccn(-c2cccc(OC(=O)NC3CCN(CCc4ccccc4)CC3)c2)c1
IC50 [1]: > 10000 nM
IC50 [2]: 315 nM

NC(=O)c1cn(-c2cccc(OC(=O)NCCCCCCc3ccccc3)c2)nn1
IC50 [1]: 479 nM
IC50 [2]: 15.8 nM
remaining at 24 h [3]: 63%
IC50 at 24 h [10]: 35000 nM
remaining at 24 h [5]: 79%

Cc1cc(C(N)=O)c(-c2cccc(OC(=O)NCCCCCCc3ccccc3)c2)o1
solubility at 12 h [22]: < 1 µM
solubility at 12 h [23]: < 1 µM
remaining at 24 h [3]: 31%
IC50 at 24 h [10]: 19200 nM
remaining at 24 h [5]: 9%

Cc1cc(C(=O)O)c(-c2cccc(OC(=O)N3CCN(CCCc4ccccc4)CC3)c2)o1
solubility at 24 h [6]: 259 µM (≈ 116 µg/mL)
IC50 [1]: > 10000 nM
IC50 [2]: 128 nM
remaining at 24 h [3]: > 99%
solubility at 24 h [4]: 249 µM (≈ 112 µg/mL)
remaining at 24 h [5]: 97%

Cc1cc(C(N)=O)c(-c2cccc(OC(=O)N3CCN(CCCc4ccccc4)CC3)c2)o1
inhibition [7]: Active
Activity [13]: 97%
Activity [14]: Active
solubility at 24 h [6]: < 1 µM
Activity [8]: Non-Toxic
pKa [9]: 8.5
IC50 [1]: 5060 nM
IC50 [2]: 8.29 nM
remaining at 24 h [3]: 98%
IC50 at 24 h [10]: 6400 nM
solubility at 24 h [4]: 168 µM (≈ 75.2 µg/mL)
Activity [12]: 70%
EC50 [16]: 2.91 nM
Activity [17]: Active
remaining at 24 h [5]: > 99%
Activity [18]: 99.3%
Activity [19]: 100%
Activity [20]: 101%
Activity [21]: 96%

Cc1cc(C(N)=O)c(-c2cccc(OC(=O)N(C)C3CCN(CCc4ccccc4)CC3)c2)o1
IC50 [1]: > 10000 nM
IC50 [2]: 6560 nM

Cc1cc(C(N)=O)c(-c2cccc(OC(=O)NC3CCN(CCCc4ccccc4)CC3)c2)o1
IC50 [1]: > 10000 nM
IC50 [2]: 407 nM

NC(=O)c1cccc(-c2cccc(OC(=O)NC3CCCCC3)c2)c1 [URB-597]
inhibition [7]: inactive
IC50 [1]: 9380 nM

Cc1cc(C(N)=O)c(-c2cccc(OC(=O)N3CCC(NCCCc4ccccc4)CC3)c2)o1
solubility at 24 h [6]: 322 µM (≈ 149 µg/mL)
IC50 [1]: 9880 nM
IC50 [2]: 165 nM
remaining at 24 h [3]: > 99%
solubility at 24 h [4]: 353 µM (≈ 163 µg/mL)
remaining at 24 h [5]: > 99%

O=C(Oc1cccc(-c2nn[nH]n2)c1)N1CCN(CCCc2ccccc2)CC1
solubility at 24 h [6]: 272 µM (≈ 107 µg/mL)
IC50 [1]: > 10000 nM
IC50 [2]: 253 nM
remaining at 24 h [3]: > 99%
solubility at 24 h [4]: 268 µM (≈ 105 µg/mL)
remaining at 24 h [5]: > 99%

Cc1cc(C(N)=O)c(-c2cccc(OC(=O)N3CCC(CCCc4ccccc4)CC3)c2)o1
IC50 [1]: 4120 nM
IC50 [2]: 11.7 nM
